Positions count from the first letter of the chain named. Values belong to the compound of their own block, whether it stands above or below them. Calls of active or inactive are those of the source. The rule behind the calls is not given here. *1 amine or outer side, *2 acyl side, *3 side chain or, on linkers, in order; H or OH if unused. Where a SMILES comes first, the peptide text is derived from it. Bridges are numbered along the chain shown (N, C = ends). Roman numbers before positions name the chains, in order. [ ]: non-standard residue; d: D form. The star is where a group is joined. X1 = O=C(O)c1cc(C(=O)*)ccc1-c1c2ccc(=O)cc-2oc2cc(O)ccc12; 2Nal = N[C@@H](Cc1ccc2ccccc2c1)C(=O)O; mXylylene = c1cc(C[*:1])cc(C[*:2])c1; Dap = NC[C@H](N)C(=O)O; AEEA = NCCOCCOCC(=O)O
What was measured:
[1] = test system: SJSA-1; conditions: Homo sapiens
[2] = test system: HeLa; assay: Induction of cell membrane disruption in human HeLa cells incubated for 4 hrs using FAM-labeled compound by LDH assay; format: cell-based
[3] = test system: HeLa; assay: Cytotoxicity against human HeLa cells incubated for 72 hrs using FAM-labeled compound by MTT assay; format: cell-based
[4] = target: E3 ubiquitin-protein ligase Mdm2 (Homo sapiens, UniProt Q00987); assay: Displacement of TMR-labelled PDI from human GST tagged MDM2 (1 to 139 residues) expressed in Escherichia coli BL21 (DE3) cells preincuabted for 1 hr with TMR-labelled PDI followed by compound addition and measured after 1 hr by fluorescence polarization assay
Sequence of E3 ubiquitin-protein ligase Mdm2 (Q00987 whole entry, the tested form may be a part): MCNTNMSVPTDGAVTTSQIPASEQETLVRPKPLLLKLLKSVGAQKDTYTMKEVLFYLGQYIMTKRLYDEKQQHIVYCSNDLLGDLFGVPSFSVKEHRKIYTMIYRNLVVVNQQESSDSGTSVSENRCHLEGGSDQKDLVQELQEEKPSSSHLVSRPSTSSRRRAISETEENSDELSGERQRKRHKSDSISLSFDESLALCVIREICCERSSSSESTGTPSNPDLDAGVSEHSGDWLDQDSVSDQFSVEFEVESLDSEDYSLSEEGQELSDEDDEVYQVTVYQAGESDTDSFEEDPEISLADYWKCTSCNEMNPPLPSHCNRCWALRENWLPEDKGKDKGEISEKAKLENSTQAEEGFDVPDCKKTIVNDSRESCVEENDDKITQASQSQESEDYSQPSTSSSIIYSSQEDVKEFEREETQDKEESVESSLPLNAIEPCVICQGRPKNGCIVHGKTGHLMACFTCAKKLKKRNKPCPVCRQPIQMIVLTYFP

[5] = target: T1, Catenin beta-1 (Homo sapiens) (UniProt P35222); assay: Inhibition of beta-catenin in human SW480 cells assessed as reduction in axin2 protein expression; format: cell-based
T1 sequence (whole entry): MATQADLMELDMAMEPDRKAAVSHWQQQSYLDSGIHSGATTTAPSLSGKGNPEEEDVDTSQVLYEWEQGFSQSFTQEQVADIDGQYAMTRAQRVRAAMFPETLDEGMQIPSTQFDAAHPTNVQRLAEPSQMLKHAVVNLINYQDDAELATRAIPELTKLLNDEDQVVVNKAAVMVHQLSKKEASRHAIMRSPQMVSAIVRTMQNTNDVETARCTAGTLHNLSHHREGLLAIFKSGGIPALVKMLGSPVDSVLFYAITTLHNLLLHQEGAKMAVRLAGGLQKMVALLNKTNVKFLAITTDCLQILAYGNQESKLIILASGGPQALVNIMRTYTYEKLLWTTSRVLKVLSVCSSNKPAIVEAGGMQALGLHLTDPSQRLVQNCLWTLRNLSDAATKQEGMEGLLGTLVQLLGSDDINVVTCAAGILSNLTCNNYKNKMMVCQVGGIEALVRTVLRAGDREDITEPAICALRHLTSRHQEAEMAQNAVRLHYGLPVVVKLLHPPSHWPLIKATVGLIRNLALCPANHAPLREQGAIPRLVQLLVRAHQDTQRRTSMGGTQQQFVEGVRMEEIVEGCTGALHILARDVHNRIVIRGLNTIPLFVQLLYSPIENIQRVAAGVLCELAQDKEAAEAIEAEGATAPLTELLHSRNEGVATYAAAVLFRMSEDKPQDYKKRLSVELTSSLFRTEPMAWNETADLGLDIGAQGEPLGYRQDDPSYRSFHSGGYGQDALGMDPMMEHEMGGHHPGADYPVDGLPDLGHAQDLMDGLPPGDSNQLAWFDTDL

[6] = target: T1, Catenin beta-1 (Homo sapiens); assay: Inhibition of beta-catenin in human HCT116 cells assessed as reduction in LGR5 mRNA expression; format: cell-based
[7] = target: T1, Catenin beta-1 (Homo sapiens); assay: Inhibition of beta-catenin in human SW480 cells assessed as reduction in LGR5 mRNA expression; format: cell-based
[8] = test system: SW480; assay: Antiproliferative activity against human SW480 cells incubated for 72 hrs by MTT assay relative to control; format: functional
[9] = test system: SW480; assay: Antiproliferative activity against human SW480 cells incubated for 72 hrs by MTT assay; format: functional, cell-based
[10] = target: T1, Catenin beta-1 (Homo sapiens); assay: Inhibition of beta-catenin in human HCT116 cells assessed as reduction in axin2 protein expression; format: cell-based
[11] = target: T1, Catenin beta-1 (Homo sapiens); assay: Inhibition of beta-catenin in human HCT116 cells assessed as reduction in myc protein expression; format: cell-based
[12] = target: T1, Catenin beta-1 (Homo sapiens); assay: Inhibition of beta-catenin in human SW480 cells assessed as reduction in myc protein expression; format: cell-based
[13] = Half life in human serum at 100 uM measured up to 24 hrs by RP-HPLC analysis; format: ADME, cell-free
[14] = test system: MCF7; assay: Antiproliferative activity against human MCF7 cells up to 20 uM incubated for 72 hrs by MTT assay; format: functional, cell-based
[15] = target: T1, Catenin beta-1 (Homo sapiens); assay: Inhibition of beta-catenin in human HCT116 cells assessed as reduction in axin2 mRNA expression; format: cell-based
[16] = target: T1, Catenin beta-1 (Homo sapiens); assay: Inhibition of beta-catenin in human SW480 cells assessed as reduction in axin2 mRNA expression; format: cell-based
[17] = test system: DLD-1; assay: Induction of apoptosis in human DLD1 cells at 25 uM incubated for 48 hrs by Annexin V/propidium iodide-staining based flow cytometric analysis relative to control; format: functional
[18] = target: T1, Catenin beta-1 (Homo sapiens); assay: Inhibition of beta-catenin in human HCT116 cells assessed as reduction in LGR5 protein expression; format: cell-based
[19] = test system: SW480; assay: Induction of apoptosis in human SW480 cells at 25 uM incubated for 48 hrs by Annexin V/propidium iodide-staining based flow cytometric analysis relative to control; format: functional
[20] = target: T1, Catenin beta-1 (Homo sapiens); assay: Inhibition of beta-catenin in human SW480 cells assessed as reduction in myc mRNA expression; format: cell-based
[21] = test system: SW480; assay: Induction of cell membrane disruption in human SW480 cells up to 50 uM incubated for 4 hrs by LDH assay relative to control; format: functional, cell-based
[22] = target: T1, Catenin beta-1 (Homo sapiens); assay: Inhibition of beta-catenin in human SW480 cells assessed as reduction in LGR5 protein expression; format: cell-based
[23] = target: T1, Catenin beta-1 (Homo sapiens); assay: Inhibition of beta-catenin in human HCT116 cells assessed as reduction in myc mRNA expression; format: cell-based
[24] = test system: SJSA-1; assay: cells; conditions: Homo sapiens, SJSA-1, 72 h
[25] = test system: HeLa; assay: Induction of apoptosis in human HeLa cells expressing wild-type p53 at =< 10 uM incubated for 48 hrs by Annexin V/propidium iodide-staining based flow cytometric analysis relative to control; format: functional
[26] = test system: MCF7; assay: Induction of cell membrane disruption in human MCF7 cells expressing wild-type p53 at =>20 uM incubated for 4 hrs by LDH assay relative to control; format: functional
[27] = test system: SJSA-1; assay: Induction of apoptosis in human SJSA1 cells at 10 uM incubated for 48 hrs by Annexin V/propidium iodide-staining based flow cytometric analysis; format: functional, cell-based
[28] = test system: MCF7; assay: Induction of apoptosis in human MCF7 cells expressing wild-type p53 at =< 10 uM incubated for 48 hrs by Annexin V/propidium iodide-staining based flow cytometric analysis relative to control; format: functional
[29] = test system: HCT-116; assay: Induction of cell membrane disruption in human HCT116 cells expressing wild-type p53 at =>20 uM incubated for 4 hrs by LDH assay relative to control; format: functional
[30] = test system: HeLa; assay: Induction of cell membrane disruption in human HeLa cells expressing wild-type p53 at =>20 uM incubated for 4 hrs by LDH assay relative to control; format: functional
[31] = test system: HCT-116; assay: Induction of apoptosis in human HCT116 cells expressing wild-type p53 at =< 10 uM incubated for 48 hrs by Annexin V/propidium iodide-staining based flow cytometric analysis relative to control; format: functional
[32] = target: T2, Catenin beta-1 (Mus musculus, UniProt Q02248); assay: Binding affinity to mouse GST tagged beta catenin (133 to 665 residues) expressed in Escherichia coli BL21 (DE3) cells incubated for 1 hr
T2 sequence (Q02248 whole entry): T1 sequence (whole entry) with P706A

[33] = test system: SW480; assay: Antiproliferative activity against human SW480 cells at 20 uM incubated for 72 hrs by MTT assay; format: functional, cell-based

- IC50 [4]: > 20000 nM
SMILES: CC(=O)N[C@@H](CC(C)C)C(=O)N[C@H](C(=O)N[C@@H](C)C(=O)N[C@H]1CC(=O)NCCCC[C@@H](C(=O)N[C@@H](CCC(N)=O)C(=O)N[C@@H](CC(C)C)C(=O)N[C@H](C(=O)N[C@@H](CO)C(=O)NCCOCCOCC(=O)N[C@@H](CCCCNC(=O)CC[C@@H]2NC(=O)[C@@H](CCCNC(=N)N)NC(=O)[C@H](CCCNC(=N)N)NC(=O)[C@@H](CCCNC(=N)N)NC(=O)[C@H](CCCNC(=N)N)NC(=O)[C@H](Cc3ccc4ccccc4c3)NC(=O)[C@@H](Cc3ccccc3)NC2=O)C(N)=O)[C@@H](C)O)NC(=O)[C@H](Cc2c[nH]c3ccccc23)NC(=O)[C@H](Cc2ccc(O)cc2)NC(=O)[C@H](Cc2cnc[nH]2)NC1=O)[C@@H](C)O
- Activity [1]: inactive
- Activity [2]: Toxic
- Activity [3]: Toxic

SMILES: CC[C@H](C)[C@@H]1NC(=O)[C@@H](NC(=O)[C@H](CCC(=O)O)NC(=O)[C@@H]2CCCN2C(=O)[C@H](Cc2ccc(O)cc2)NC(=O)CNC(=O)CNC(C)=O)CC(=O)NCCCC[C@@H](C(=O)N[C@@H](Cc2cnc[nH]2)C(=O)N[C@@H](CC(C)C)C(=O)N[C@@H](CCC(N)=O)C(=O)N[C@@H](CCCNC(=N)N)C(=O)N[C@H](C(=O)N[C@H](C(=O)N[C@@H](CC(C)C)C(=O)NCCOCCOCC(=O)NCCOCCOCC(=O)N[C@@H](CNC(=O)CC[C@@H]2NC(=O)[C@@H](CCCNC(=N)N)NC(=O)[C@H](CCCNC(=N)N)NC(=O)[C@@H](CCCNC(=N)N)NC(=O)[C@H](CCCNC(=N)N)NC(=O)[C@H](Cc3ccc4ccccc4c3)NC(=O)[C@@H](Cc3ccccc3)NC2=O)C(N)=O)[C@@H](C)CC)C(C)C)NC(=O)[C@H](CC(=O)O)NC(=O)[C@H](CC(C)C)NC1=O (I: Ac-GGYPEDILDKHLQRVIL[AEEA][AEEA][Dap]-NH2 / II: cyclo([2Nal]R[dR]R[dR]E[dF]); lactam I:6-I:10; amide I:20-II:6)
- inhibition [5]: Active
- inhibition [6]: Active
- inhibition [7]: Active
- Activity [8]: 60%
- Activity [9]: Dose-dependent effect
- EC50 ([9]; SW480, 72 h): 1200 nM
- inhibition [10]: Active
- inhibition [11]: Active
- inhibition [12]: Active
- half-life at 100 µM [13]: 2 h
- Activity [14]: inactive
- inhibition [15]: Active
- inhibition [16]: Active
- Activity [17]: 10%
- inhibition [18]: Active
- Activity [19]: 10%
- inhibition [20]: Active
- Activity [21]: inactive
- inhibition [22]: Active
- inhibition [23]: Active

SMILES: CC(=O)N[C@@H](CC(C)C)C(=O)N[C@H](C(=O)N[C@@H](Cc1ccccc1)C(=O)N[C@H]1CC(=O)NCCCC[C@@H](C(=O)N[C@@H](CCC(N)=O)C(=O)N[C@@H](CC(C)C)C(=O)N[C@H](C(=O)N[C@@H](CO)C(=O)NCCOCCOCC(=O)N[C@@H](CCCCNC(=O)CC[C@@H]2NC(=O)[C@@H](CCCNC(=N)N)NC(=O)[C@H](CCCNC(=N)N)NC(=O)[C@@H](CCCNC(=N)N)NC(=O)[C@H](CCCNC(=N)N)NC(=O)[C@H](Cc3ccc4ccccc4c3)NC(=O)[C@@H](Cc3ccccc3)NC2=O)C(N)=O)[C@@H](C)O)NC(=O)[C@H](Cc2c[nH]c3ccccc23)NC(=O)[C@H](Cc2ccc(O)cc2)NC(=O)[C@H](Cc2cnc[nH]2)NC1=O)[C@@H](C)O (I: Ac-LTFDHYWKQLTS[AEEA]K-NH2 / II: cyclo([2Nal]R[dR]R[dR]E[dF]); lactam I:4-I:8; amide I:14-II:6)
- EC50 [24]: 3800 nM
- Activity [1]: Dose-dependent effect
- Activity [25]: 5 - 50%
- Activity [2]: Toxic
- Activity [26]: 100%
- Activity [27]: Active
- Activity [28]: 5 - 50%
- Activity [3]: Toxic
- Activity [29]: 100%
- Activity [30]: 100%
- Activity [31]: 5 - 50%

- Kd [32]: 18 nM
SMILES: CC[C@H](C)[C@@H]1NC(=O)[C@@H](NC(=O)[C@H](CCC(=O)O)NC(=O)[C@@H]2CCCN2C(=O)[C@H](Cc2ccc(O)cc2)NC(=O)CNC(=O)CNC(=O)c2ccc(-c3c4ccc(=O)cc-4oc4cc(O)ccc34)c(C(=O)O)c2)CSCc2cccc(c2)CSC[C@@H](C(=O)N[C@@H](Cc2cnc[nH]2)C(=O)N[C@@H](CC(C)C)C(=O)N[C@@H](CCC(N)=O)C(=O)N[C@@H](CCCNC(=N)N)C(=O)N[C@H](C(=O)N[C@H](C(=O)N[C@@H](CC(C)C)C(N)=O)[C@@H](C)CC)C(C)C)NC(=O)[C@H](CC(=O)O)NC(=O)[C@H](CC(C)C)NC1=O (X1-GGYPECILDCHLQRVIL-NH2; linker 6-10 via mXylylene)
- Activity [33]: Active
